Reference: ChEMBL document CHEMBL3352227, “Synthesis, antimycobacterial and antibacterial evaluation of l-[(1R, 2S)-2-fluorocyclopropyl]fluoroquinolone derivatives containing an oxime functional moiety” (Eur J Med Chem, 2014)
≈ marks a conversion by molar mass, not a printed value.

Assays:
[1] = system: Mycobacterium tuberculosis; assay: Antimycobacterial activity against isoniazid and rifampicin resistant Mycobacterium tuberculosis 6133 by MABA method; assay type: functional
[2] = system: Mycobacterium tuberculosis; assay: Antimycobacterial activity against isoniazid and rifampicin resistant Mycobacterium tuberculosis 11277 by MABA method; assay type: functional

| SMILES | MIC [1] | MIC [2] |
| --- | --- | --- |
| CO/N=C1/CN(c2nc3c(cc2F)c(=O)c(C(=O)O)cn3[C@@H]2C[C@@H]2F)CC1CN (stereo partly specified) | 0.125 µg/mL (≈ 0.307 µM) | 0.25 µg/mL (≈ 0.614 µM) |
| CO/N=C1/CCN(c2c(F)cc3c(=O)c(C(=O)O)cn([C@@H]4C[C@@H]4F)c3c2OC)CC1N (stereo partly specified) | 0.0625 µg/mL (≈ 0.143 µM) | 0.125 µg/mL (≈ 0.286 µM) |
| NNC(=O)c1ccncc1 [ISONIAZID] | 4 µg/mL (≈ 29.2 µM) | 1 µg/mL (≈ 7.29 µM) |
| CO/N=C1/CN(c2cc3c(cc2F)c(=O)c(C(=O)O)cn3[C@@H]2C[C@@H]2F)[C@H]1CN | 0.125 µg/mL (≈ 0.319 µM) | 0.25 µg/mL (≈ 0.637 µM) |
| CO/N=C1/CN(c2c(F)cc3c(=O)c(C(=O)O)cn([C@@H]4C[C@@H]4F)c3c2OC)[C@H]1CN | 0.125 µg/mL (≈ 0.296 µM) | 0.25 µg/mL (≈ 0.592 µM) |
| CCO/N=C1/CN(c2cc3c(cc2F)c(=O)c(C(=O)O)cn3[C@@H]2C[C@@H]2F)CC1CN (stereo partly specified) | 0.125 µg/mL (≈ 0.297 µM) | 0.125 µg/mL (≈ 0.297 µM) |
| O=C(O)c1cn(C2CC2)c2cc(N3CCNCC3)c(F)cc2c1=O [CIPROFLOXACIN] | 0.125 µg/mL (≈ 0.377 µM) | 0.125 µg/mL (≈ 0.377 µM) |
| NCC1CN(c2cc3c(cc2F)c(=O)c(C(=O)O)cn3[C@@H]2C[C@@H]2F)C/C1=N/OCc1ccccc1 (stereo partly specified) | 0.125 µg/mL (≈ 0.259 µM) | 0.25 µg/mL (≈ 0.518 µM) |
| NC[C@H]1/C(=N\OCc2ccccc2)CN1c1cc2c(cc1F)c(=O)c(C(=O)O)cn2[C@@H]1C[C@@H]1F | 0.25 µg/mL (≈ 0.534 µM) | 0.5 µg/mL (≈ 1.07 µM) |
| CO[C@H]1/C=C/O[C@@]2(C)Oc3c(C)c(O)c4c(O)c(c(/C=N/N5CCN(C)CC5)c(O)c4c3C2=O)NC(=O)/C(C)=C\C=C\[C@H](C)[C@H](O)[C@@H](C)[C@@H](O)[C@@H](C)[C@H](OC(C)=O)[C@@H]1C [RIFAMPIN] | > 40 µg/mL | > 40 µg/mL |
| NCC1CN(c2nc3c(cc2F)c(=O)c(C(=O)O)cn3[C@@H]2C[C@@H]2F)C/C1=N/OCc1ccccc1 (stereo partly specified) | 0.125 µg/mL (≈ 0.259 µM) | 0.5 µg/mL (≈ 1.03 µM) |
| C[C@H]1COc2c(N3CCN(C)CC3)c(F)cc3c(=O)c(C(=O)O)cn1c23.C[C@H]1COc2c(N3CCN(C)CC3)c(F)cc3c(=O)c(C(=O)O)cn1c23.O [LEVOFLOXACIN] | 0.125 µg/mL | 0.125 µg/mL |
| CCO/N=C1/CN(c2nc3c(cc2F)c(=O)c(C(=O)O)cn3[C@@H]2C[C@@H]2F)CC1CN (stereo partly specified) | 0.125 µg/mL (≈ 0.297 µM) | 0.125 µg/mL (≈ 0.297 µM) |
